According to US20120295923A1, “Aminocyclohexanes and Aminotetrahydropyrans and Related Compounds As Gamma-Secretase Modulators” (PFIZER INC., priority 2010, published 2012):
Structures can show the parent of a compound that is named as a salt.

These compounds were tested on γ-secretase; production of amyloid beta protein Aβ(1-42) (assay: Cell-Based γ-Secretase Assay with ELISA Readout). Settings: human WT-APP overexpressing CHO cells; footnote 8: single determination; read-out: Aβ 42B IC50 (nM) (Geometric Mean of 2-8 Determinations).
Experimental: The ability of compounds to modulate production of amyloid beta protein A6(1-42) was determined using human WT-APP overexpressing CHO cells. Cells were plated at 22,000 cells/100 μL well in 96 well tissue culture treated, clear plates (Falcon) in DMEM/F12 based medium and incubated for 24 hours at 37° C. Compounds for testing were diluted in 100% DMSO to achieve an eleven points, half log, dose response for IC50 determinations. Compounds were added in fresh medium to achieve 1% final DMSO. Appropriate vehicle and inhibitor controls were added to obtain maximum and minimum inhibition values for the assay before the plates were incubated for about 24 hours at 37° C.
Coating of ELISA assay plates was initiated by addition of 50 μL/well of an in-house Aβ(1-42) specific antibody at (4 μg/mL) in 0.1 M NaHCO3 (pH 9.0) into black 384-well Maxisorp® plates (Nunc) and incubated overnight at 4° C. The capture antibody was then aspirated from the ELISA assay plates and 100 μL/well of Blocking Buffer (Dulbecco's PBS, 1.5% BSA (Sigma A7030)) added. Ambient temperature incubation was allowed to proceed for a minimum of two hours before washing 2×100 μL with Wash Buffer (Dulbecco's PBS, 0.05% Tween 20). Assay Buffer (Dulbecco's PBS, 1.0% BSA (Sigma A7030), 0.05% Tween 20) 20 μL/well was then added.
After incubation overnight at 37° C., 5% CO2, 40 μL (in duplicate) of experimental conditioned media were transferred into wells of the blocked ELISA plates containing the capture antibody, followed by overnight incubation at 4° C.
After overnight incubation of the ELISA assay plates at 4° C., unbound Aβ peptides were removed thorough (4×100 μL) washes with Wash Buffer. Europium (Eu) labeled (custom labeled, Perkin Elmer) Aβ(1-16) 6e10 Monoclonal Antibody (Covance #SIG-39320 was added, (50 μL/well Eu-6e10 @ 1:5000, 20 uM EDTA) in Assay Buffer. Incubation at ambient temperature for a minimum of 2 hours was followed by (4×100 μL) washes with Wash Buffer, before 50 μL/well of Delfia Enhancement Solution (PerkinElmer) was added. Following a one hour ambient temperature incubation, the plates were read on an EnVision plate reader (PerkinElmer) using standard DELFIA TRF settings. Data analysis including inhibitory IC50 determination was performed using nonlinear regression fit analysis (in-house software) and the appropriate plate mean values for the maximum and minimum inhibition controls.

IC50	Structure (SMILES)
230 nM	O=C(O)C[C@@H]1CC[C@@H](N(Cc2cccc(F)c2)CC2CCCC2)[C@H](c2ccc(C(F)(F)F)cc2)C1 [Example 28, {(1R,3S,4R)-4-[(cyclopentyl-methyl)(3-fluorobenzyl)amino]-3-[4-(trifluoromethyl)phenyl]cyclohexyl} acetic acid, hydro-chloride salt]
193 nM	O=C(O)C[C@@H]1CC[C@@H](N2CC3(CCCC3)CC3(CCCC3)C2)[C@H](c2ccc(C(F)(F)F)cc2)C1 [Example 29, {(1R,3S,4R)-4-(13-azadispiro [4.1.4.3]tetradec-13-yl)-3-[4-(trifluoromethyl)phenyl]cyclohexyl} acetic acid]

Same assay, conditions: human WT-APP overexpressing CHO cells; geometric mean of 2-4 determinations unless otherwise indicated (footnote 10: 6-8; footnote 14: single determination); read-out: Aβ 42B IC50

Structure (SMILES)	IC50
CC(C)CCN(C1CCOCC1)[C@@H]1CC[C@@H](CC(=O)O)C[C@H]1c1ccc(C(F)(F)F)cc1 [Example 30, {(1R,3S,4R)-4-[(3-methylbutyl)(tetrahydro-2H-pyran-4-yl)amino]-3-[4-(trifluoromethyl)phenyl]cyclohexyl}acetic acid, ammonium salt]	7310 nM
O=C(O)C[C@@H]1CC[C@@H](N(CC2CCCCC2)C2CCOCC2)[C@H](c2ccc(C(F)(F)F)cc2)C1 [Example 31, {(1R,3S,4R)-4-[(cyclohexylmethyl)(tetrahydro-2H-pyran-4-yl)amino]-3-[4-(trifluoromethyl)phenyl]cyclohexyl}acetic acid, ammonium salt]	1300 nM
CC(C)CCN(Cc1nccs1)[C@@H]1CC[C@@H](CC(=O)O)C[C@H]1c1ccc(C(F)(F)F)cc1 [Example 33, {(1R,3S,4R)-4-[(3-methylbutyl)(1,3-thiazol-2-ylmethyl)amino]-3-[4-(trifluoromethyl)phenyl]cyclohexyl}acetic acid, trifluoroacetate acid]	3020 nM
O=C(O)C[C@@H]1CC[C@@H](N(Cc2cncnc2)CC2CCCC2)[C@H](c2ccc(C(F)(F)F)cc2)C1 [Example 38, {(1R,3S,4R)-4-[(cyclopentylmethyl)(pyrimidin-5-ylmethyl)amino]-3-[4-(trifluoromethyl)phenyl]cyclohexyl}acetic acid, trifluoroacetate salt]	5220 nM
O=C(O)C[C@@H]1CC[C@@H](N(CC2CCCC2)CC2(F)CCCCC2)[C@H](c2ccc(C(F)(F)F)cc2)C1 [Example 39, {(1R,3S,4R)-4-{(cyclopentylmethyl)[(1-fluorocyclohexyl)methyl]amino}-3-[4-(trifluoromethyl)phenyl]cyclohexyl}acetic acid, ammonium salt]	109 nM
O=C(O)C[C@@H]1CC[C@@H](N(CCC2CCCCC2)CC2CCCC2)[C@H](c2ccc(C(F)(F)F)cc2)C1 [Example 40, {(1R,3S,4R)-4-[(2-cyclohexylethyl)(cyclopentyl-methyl)amino]-3-[4-(trifluoromethyl)phenyl]cyclohexyl}acetic acid, trifluoroacetate salt]	621 nM
O=C(O)C[C@@H]1CC[C@@H](N(CCC2CCCCO2)CC2CCCC2)[C@H](c2ccc(C(F)(F)F)cc2)C1 (stereo partly drawn) [Example 41, {(1R,3S,4R)-4-{(cyclopentylmethyl)[2-(tetrahydro-2H-pyran-2-yl)ethyl]amino}-3-[4-(trifluoromethyl)phenyl]cyclohexyl}acetic acid, trifluoroacetate salt]	5630 nM
O=C(O)C[C@@H]1CC[C@@H](N(Cc2cscn2)CC2CCCC2)[C@H](c2ccc(C(F)(F)F)cc2)C1 [Example 42, {(1R,3S,4R)-4-[(cyclopentylmethyl)(1,3-thiazol-4-ylmethyl)amino]-3-[4-(trifluoromethyl)phenyl]cyclohexyl}acetic acid, trifluoroacetate salt]	1970 nM
O=C(O)C[C@@H]1CC[C@@H](N(CCC(F)(F)F)CC2CCCC2)[C@H](c2ccc(C(F)(F)F)cc2)C1 [Example 45, {(1R,3S,4R)-4-[(cyclopentylmethyl)(3,3,3-trifluoropropyl)amino]-3-[4-(trifluoromethyl)phenyl]cyclohexyl}acetic acid, trifluoroacetate salt]	484 nM
N#Cc1ccc([C@@H]2O[C@H](CC(=O)O)CC[C@H]2N(CC2CCCC2)CC2CCCC2)cc1 [Example 46, [(2S,5R,6S)-5-[bis(cyclopentylmethyl)amino]-6-(4-cyanophenyl)tetrahydro-2H-pyran-2-yl]acetic acid, ammonium salt]	2550 nM
O=C(O)C[C@@H]1CC[C@@H](N(CC2CCCC2)CC2CCCC2)[C@H](c2cccc(Cl)c2)O1 [Example 47, [(2S,5R,6S)-5-[bis(cyclopentylmethyl)amino]-6-(3-chlorophenyl)tetrahydro-2H-pyran-2-yl]acetic acid, ammonium salt]	1840 nM
O=C(O)C[C@@H]1CC[C@@H](N(CCC(F)(F)F)CC2CCCC2)[C@H](c2ccc(Cl)cc2)C1 [Example 48, {(1R,3S,4R)-3-(4-chlorophenyl)-4-[(cyclopentylmethyl)(3,3,3-trifluoropropyl)amino]cyclohexyl}acetic acid, trifluoroacetate salt]	441 nM
O=C(O)C[C@@H]1CC[C@@H](N(CC2CCCC2)CC2CCC2)[C@H](c2ccc(C(F)(F)F)cc2)C1 [Example 50, {(1R,3S,4R)-4-[(cyclobutylmethyl) (cyclopentyl)methyl)amino]-3-[4-(trifluoromethyl)phenyl] cyclohexyl}acetic acid, ammonium salt]	463 nM
CC(CN(CC1CCCC1)[C@@H]1CC[C@@H](CC(=O)O)C[C@H]1c1ccc(Cl)cc1)C(F)(F)F (stereo partly drawn) [Example 51, {(1R,3S,4R)-3-(4-chlorophenyl)-4-[(cyclopentylmethyl)(3,3,3-trifluoro-2-methylpropyl)amino]cyclohexyl}acetic acid, trifluoroacetate salt]	382 nM

Next, values leading:

IC50	Structure (SMILES)
598 nM	CC(C)CCN(CCC1CCCCC1)[C@@H]1CC[C@@H](CC(=O)O)C[C@H]1c1ccc(C(F)(F)F)cc1 [Example 32, {(1R,3S,4R)-4-[(2-cyclohexylethyl)(3-methylbutyl)amino]-3-[4-(trifluoromethyl)phenyl]cyclohexyl}acetic acid, trifluoroacetate salt]
359 nM	CCC(C)CN(CC1CCCC1)[C@@H]1CC[C@@H](CC(=O)O)C[C@H]1c1ccc(C(F)(F)F)cc1 (stereo partly drawn) [Example 34, {(1R,3S,4R)-4-[(cyclopentylmethyl)(2-methylbutyl)amino]-3-[4-(trifluoromethyl)phenyl]cyclohexyl}acetic acid, ammonium salt]
516 nM	CC(C)(C)CCN(CC1CCCC1)[C@@H]1CC[C@@H](CC(=O)O)C[C@H]1c1ccc(C(F)(F)F)cc1 [Example 35, {(1R,3S,4R)-4-[(cyclopentylmethyl)(3,3-dimethylbutyl)amino]-3-[4-(trifluoromethyl)phenyl]cyclohexyl}acetic acid, ammonium salt]
349 nM	CC(C)(C)CN(CC1CCCC1)[C@@H]1CC[C@@H](CC(=O)O)C[C@H]1c1ccc(C(F)(F)F)cc1 [Example 36, {(1R,3S,4R)-4-[(cyclopentylmethyl)(2,2-dimethylpropyl)amino]-3-[4-(trifluoromethyl)phenyl]cyclohexyl}acetic acid, ammonium salt]
2170 nM	CC(C)(C#N)CCN(CC1CCCC1)[C@@H]1CC[C@@H](CC(=O)O)C[C@H]1c1ccc(C(F)(F)F)cc1 [Example 37, {(1R,3S,4R)-4-[(3-cyano-3-methylbutyl)(cyclopentylmethyl)amino]-3-[4-(trifluoromethyl)phenyl]cyclohexyl}acetic acid, trifluoroacetate salt]
162 nM	CCC(CC)CN(CC1CCCC1)[C@@H]1CC[C@@H](CC(=O)O)C[C@H]1c1ccc(C(F)(F)F)cc1 [Example 43, {(1R,3S,4R)-4-[(cyclopentylmethyl)(2-ethylbutyl)amino]-3-[4-(trifluoromethyl)phenyl]cyclohexyl}acetic acid, trifluoroacetate salt]
318 nM	CC(C)CN(CC1CCCC1)[C@@H]1CC[C@@H](CC(=O)O)C[C@H]1c1ccc(C(F)(F)F)cc1 [Example 44, {(1R,3S,4R)-4-[(cyclopentylmethyl)(isobutyl)amino]-3-[4-(trifluoromethyl)phenyl]cyclohexyl}acetic acid, trifluoroacetic salt]
477 nM	CCC(CC)CN(CC1CCCC1)[C@@H]1CC[C@@H](CC(=O)O)C[C@H]1c1ccc(Cl)cc1 [Example 49, {(1R,3S,4R)-3-(4-chlorophenyl)-4-[(cyclopentylmethyl)(2-ethylbutyl)amino]cyclohexyl} acetic acid, ammonium salt]
